Data on two molecules can be found in paper doi:10.1101/2022.12.28.522074v1, “Redesigning methionyl-tRNA synthetase for β-methionine activity with adaptive landscape flattening and experiments” (biorxiv, 2022).

What all share (experiment): intrinsic fluorescence titration at equilibrium
Assay type in all cases: binding

Assay [1] addresses T1, MetRS M547 (His-tagged monomeric E. coli MetRS) (Escherichia coli, UniProt P00959).
T1 construct: gene metG; M547: C-terminally truncated monomeric fragment (about 547 residues), His-tagged, pET15blpa, expressed in E. coli BLR(DE3)
T1 sequence (P00959 2-548): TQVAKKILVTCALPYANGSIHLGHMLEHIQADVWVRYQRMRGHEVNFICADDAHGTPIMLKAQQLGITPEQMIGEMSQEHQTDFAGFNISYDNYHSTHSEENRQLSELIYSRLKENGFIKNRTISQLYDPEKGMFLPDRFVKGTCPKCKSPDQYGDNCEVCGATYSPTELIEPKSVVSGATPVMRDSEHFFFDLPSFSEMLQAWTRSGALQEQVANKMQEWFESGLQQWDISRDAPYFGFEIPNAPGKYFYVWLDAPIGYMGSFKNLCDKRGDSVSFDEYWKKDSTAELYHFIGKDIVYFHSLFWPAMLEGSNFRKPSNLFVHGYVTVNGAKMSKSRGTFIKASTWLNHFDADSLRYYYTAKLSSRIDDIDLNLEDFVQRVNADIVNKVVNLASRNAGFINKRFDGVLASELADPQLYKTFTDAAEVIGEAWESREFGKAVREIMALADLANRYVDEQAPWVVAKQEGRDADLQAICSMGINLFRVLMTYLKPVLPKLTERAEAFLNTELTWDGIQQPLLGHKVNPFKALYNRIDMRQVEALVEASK
An excerpt:
(§1) intrinsic fluorescence titration at equilibrium on MetRS M547 (His-tagged monomeric E. coli MetRS)

In assay [2] the target is T2, MetRS M547 (His-tagged monomeric E. coli MetRS) (Escherichia coli, UniProt P00959, I298C).
T2 construct: gene metG; M547: C-terminally truncated monomeric fragment (about 547 residues), His-tagged, pET15blpa, expressed in E. coli BLR(DE3)
T2 sequence (P00959 2-548 I298C): T1 sequence (P00959 2-548) with I297C
From the text: as §1

The target of assay [3] is T3, MetRS M547 (His-tagged monomeric E. coli MetRS) (Escherichia coli, UniProt P00959, I298C/L14C).
T3 construct: gene metG; M547: C-terminally truncated monomeric fragment (about 547 residues), His-tagged, pET15blpa, expressed in E. coli BLR(DE3)
T3 sequence (P00959 2-548 L14C/I298C): T1 sequence (P00959 2-548) with L13C, I297C
From the text: as §1

For assay [4], the target named is T4, MetRS M547 (His-tagged monomeric E. coli MetRS) (Escherichia coli, UniProt P00959, I298C/L14M).
T4 construct: gene metG; M547: C-terminally truncated monomeric fragment (about 547 residues), His-tagged, pET15blpa, expressed in E. coli BLR(DE3)
T4 sequence (P00959 2-548 L14M/I298C): T1 sequence (P00959 2-548) with L13M, I297C
From the text: as §1

Assay [5] has as its target T5, MetRS M547 (His-tagged monomeric E. coli MetRS) (Escherichia coli, UniProt P00959, I298C/L14S).
T5 construct: gene metG; M547: C-terminally truncated monomeric fragment (about 547 residues), His-tagged, pET15blpa, expressed in E. coli BLR(DE3)
T5 sequence (P00959 2-548 L14S/I298C): T1 sequence (P00959 2-548) with L13S, I297C
From the text: as §1

SMILES strings stand for the structures. Residue numbers refer to the chain shown, from its start. Where two headings read alike, the source gives them in different places.

In the case of `CSCC[C@H](N)CC(=O)O` [β-Met], the Kd was found to be 1200 µM in assay [1] (read-out: Kd(β-Met)); 900 µM in assay [2] (read-out: Kd(β-Met)); 900 µM in assay [3] (read-out: Kd(β-Met)); 900 µM in assay [4] (read-out: Kd(β-Met)); 1000 µM in assay [5] (read-out: Kd(β-Met)).

In the case of `CSCC[C@H](N)C(=O)O` [α-Met], the Kd was 50 µM in assay [1] (read-out: Kd(α-Met)); 190 µM in assay [2] (read-out: Kd(α-Met)); 170 µM in assay [3] (read-out: Kd(α-Met)); 160 µM in assay [4] (read-out: Kd(α-Met)); 170 µM in assay [5] (read-out: Kd(α-Met)).
